Data: patent US6713265B1 (Synaptic Pharmaceutical Corporation, priority 1999, dated 2004)

Columns and labels:
[1] = molecular target: T1, D3 (Homo sapiens, UniProt P35462); experiment: Binding at cloned human dopamine D3 receptor
T1 construct: expressed in transfected cells; host or cells: COS-7

[2] = molecular target: T2, α1a (Homo sapiens, UniProt P35348); experiment: Binding at cloned human α1a adrenergic receptor
T2 sequence (P35348 1-466): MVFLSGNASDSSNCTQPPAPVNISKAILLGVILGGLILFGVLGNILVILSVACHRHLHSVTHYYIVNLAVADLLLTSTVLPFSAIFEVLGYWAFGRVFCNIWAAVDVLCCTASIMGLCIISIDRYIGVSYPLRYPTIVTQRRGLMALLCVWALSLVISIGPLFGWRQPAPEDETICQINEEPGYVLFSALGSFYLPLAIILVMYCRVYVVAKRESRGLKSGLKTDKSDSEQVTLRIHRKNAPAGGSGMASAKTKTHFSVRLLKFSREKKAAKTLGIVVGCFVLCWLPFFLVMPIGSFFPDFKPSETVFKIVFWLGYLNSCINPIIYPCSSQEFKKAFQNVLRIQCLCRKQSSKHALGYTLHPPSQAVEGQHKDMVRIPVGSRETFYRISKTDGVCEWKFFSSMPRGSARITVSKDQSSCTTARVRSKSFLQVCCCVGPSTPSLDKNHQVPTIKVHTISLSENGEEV

[3] = molecular target: 5HT7 (Homo sapiens, UniProt P34969); experiment: Binding at cloned human 5HT7 receptor
Chain of 5HT7 (P34969 1-445 isoform P34969-2): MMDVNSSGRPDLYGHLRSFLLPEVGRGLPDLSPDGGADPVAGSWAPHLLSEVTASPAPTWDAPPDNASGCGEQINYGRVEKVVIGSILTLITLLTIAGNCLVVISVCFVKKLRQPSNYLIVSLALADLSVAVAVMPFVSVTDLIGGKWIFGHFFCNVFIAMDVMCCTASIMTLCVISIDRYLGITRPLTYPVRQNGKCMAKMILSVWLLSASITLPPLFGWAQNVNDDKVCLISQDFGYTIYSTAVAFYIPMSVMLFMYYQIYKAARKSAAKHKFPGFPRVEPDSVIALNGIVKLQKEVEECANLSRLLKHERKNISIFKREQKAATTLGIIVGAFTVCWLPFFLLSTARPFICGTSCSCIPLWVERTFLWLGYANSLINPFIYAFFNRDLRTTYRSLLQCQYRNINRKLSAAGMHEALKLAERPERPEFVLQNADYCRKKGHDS

[4] = system: food intake; experiment: Food intake in food-deprived rats; format: in vivo, rat; conditions: 30 mg/kg i.p., after 24h food deprivation
Protocol: After receipt, the animals are individually housed for the duration of the study and allowed free access to normal food together with tap water. The animals are maintained in a room with a 12 h light/dark cycle (8:00 a.m. to 8:00 p.m. light) at 24° C. and monitored humidity. After placement into individual cages the rats undergo a 4 day equilibration period, during which they are habituated to their new environment and to eating a powdered or pellet diet NAFAG, Gossau, Switzerland).
At the end of the equilibration period, food is removed from the animals for 24 hours starting at 8:00 a.m. At the end of the fasting period compound or vehicle may be administered to the animals orally or by injection intraperitoneally or intravenously. After 10-60 min. food is returned to the animals and their food intake is monitored at various time periods during the following 24 hour period. The food intake of animals treated with test compound may be calculated as a percentage of the food intake of control animals (i.e., animals treated with vehicle). Alternatively, food intake for each group of animals subjected to a particular experimental condition may be expressed as the mean±S.E.M.
Measurements were performed two hours after administration of the test compound.

[5] = molecular target: T3, human Y2 receptor (Homo sapiens, UniProt P49146); experiment: ^125I-PYY binding to membranes, cloned human Y2 receptor; conditions: read-out: Binding Affinity Ki vs. ^125I-PYY, Human Receptor Y2; Table 14; stably transfected 293 cells (compound 1 also COS-7)
T3 construct: expressed in transfected cells; host or cells: COS-7 (transient)
T3 sequence (P49146 1-381): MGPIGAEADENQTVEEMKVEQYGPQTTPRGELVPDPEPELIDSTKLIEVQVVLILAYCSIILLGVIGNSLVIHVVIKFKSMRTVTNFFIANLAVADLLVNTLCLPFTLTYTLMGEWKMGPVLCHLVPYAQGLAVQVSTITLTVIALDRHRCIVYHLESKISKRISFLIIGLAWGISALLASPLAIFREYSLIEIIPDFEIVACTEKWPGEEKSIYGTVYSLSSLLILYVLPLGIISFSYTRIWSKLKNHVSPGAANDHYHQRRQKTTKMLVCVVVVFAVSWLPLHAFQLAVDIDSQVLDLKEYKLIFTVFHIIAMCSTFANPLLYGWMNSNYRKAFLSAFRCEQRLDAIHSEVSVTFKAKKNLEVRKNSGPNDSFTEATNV

[6] = molecular target: T4, α1b (Homo sapiens, UniProt P35368); experiment: Binding at cloned human α1b adrenergic receptor
T4 sequence (P35368 1-520): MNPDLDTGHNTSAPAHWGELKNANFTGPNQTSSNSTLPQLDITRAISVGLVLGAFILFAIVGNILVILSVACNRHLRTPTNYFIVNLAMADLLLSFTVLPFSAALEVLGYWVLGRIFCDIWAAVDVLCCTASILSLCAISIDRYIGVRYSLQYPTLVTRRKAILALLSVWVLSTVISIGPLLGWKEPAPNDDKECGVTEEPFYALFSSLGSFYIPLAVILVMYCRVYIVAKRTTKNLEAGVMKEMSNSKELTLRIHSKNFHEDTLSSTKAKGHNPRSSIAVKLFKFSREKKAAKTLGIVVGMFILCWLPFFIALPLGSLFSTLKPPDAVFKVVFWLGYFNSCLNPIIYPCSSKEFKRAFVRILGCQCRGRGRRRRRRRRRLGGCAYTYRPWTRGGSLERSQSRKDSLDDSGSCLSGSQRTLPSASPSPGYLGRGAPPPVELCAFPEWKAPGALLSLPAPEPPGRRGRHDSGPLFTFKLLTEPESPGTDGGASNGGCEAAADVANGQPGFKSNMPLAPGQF

[7] = molecular target: T5, α2b (Homo sapiens, UniProt P18089); experiment: Binding at cloned human α2b adrenergic receptor
T5 sequence (P18089 1-450): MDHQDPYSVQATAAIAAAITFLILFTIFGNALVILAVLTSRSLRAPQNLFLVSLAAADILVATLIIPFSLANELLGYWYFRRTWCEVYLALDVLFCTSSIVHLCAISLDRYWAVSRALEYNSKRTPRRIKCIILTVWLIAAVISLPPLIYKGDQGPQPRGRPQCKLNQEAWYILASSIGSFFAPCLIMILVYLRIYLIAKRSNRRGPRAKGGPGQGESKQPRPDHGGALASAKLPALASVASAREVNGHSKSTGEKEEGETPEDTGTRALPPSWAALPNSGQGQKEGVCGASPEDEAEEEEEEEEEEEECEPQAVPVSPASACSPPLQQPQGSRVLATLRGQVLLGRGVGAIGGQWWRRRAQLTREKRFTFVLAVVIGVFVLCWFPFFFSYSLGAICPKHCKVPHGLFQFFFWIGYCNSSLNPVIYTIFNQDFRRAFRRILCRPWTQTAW

[8] = molecular target: 5HT1a (Homo sapiens, UniProt P08908); experiment: Binding at cloned human 5HT1a receptor
Chain of 5HT1a (P08908 whole entry): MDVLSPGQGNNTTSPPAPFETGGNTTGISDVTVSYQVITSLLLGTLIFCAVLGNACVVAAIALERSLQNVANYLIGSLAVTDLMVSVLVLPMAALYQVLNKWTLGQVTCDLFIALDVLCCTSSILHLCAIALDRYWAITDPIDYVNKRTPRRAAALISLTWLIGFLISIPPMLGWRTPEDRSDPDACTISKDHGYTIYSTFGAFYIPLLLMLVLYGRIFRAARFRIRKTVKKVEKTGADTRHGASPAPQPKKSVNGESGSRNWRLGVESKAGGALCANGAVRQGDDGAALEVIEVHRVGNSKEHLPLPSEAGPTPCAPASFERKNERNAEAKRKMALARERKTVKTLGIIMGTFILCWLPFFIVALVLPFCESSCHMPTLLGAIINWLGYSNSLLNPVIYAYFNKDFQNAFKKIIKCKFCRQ

[9] = molecular target: T6, α2c (Homo sapiens, UniProt P18825); experiment: Binding at cloned human α2c adrenergic receptor; conditions: cloned human receptor
T6 sequence (P18825 1-462): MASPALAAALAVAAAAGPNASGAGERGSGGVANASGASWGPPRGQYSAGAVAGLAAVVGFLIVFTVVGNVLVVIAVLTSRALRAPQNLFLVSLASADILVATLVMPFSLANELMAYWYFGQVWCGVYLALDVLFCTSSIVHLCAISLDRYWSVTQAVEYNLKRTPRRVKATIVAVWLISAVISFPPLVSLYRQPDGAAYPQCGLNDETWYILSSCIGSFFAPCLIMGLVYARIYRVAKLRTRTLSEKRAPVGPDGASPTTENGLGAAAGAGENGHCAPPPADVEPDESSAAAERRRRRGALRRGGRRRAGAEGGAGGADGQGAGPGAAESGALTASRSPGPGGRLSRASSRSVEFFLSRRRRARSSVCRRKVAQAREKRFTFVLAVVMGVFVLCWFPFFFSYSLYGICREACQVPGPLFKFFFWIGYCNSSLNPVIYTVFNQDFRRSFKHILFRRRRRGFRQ

[10] = molecular target: T7, 5HT1Dβ (Homo sapiens, UniProt P28222); experiment: Binding at cloned human 5HT1Dβ receptor
T7 construct: expressed in transfected cells; host or cells: LM(tk-), line Ltk-11 (ATCC CRL 10422)
T7 sequence (P28222 whole entry): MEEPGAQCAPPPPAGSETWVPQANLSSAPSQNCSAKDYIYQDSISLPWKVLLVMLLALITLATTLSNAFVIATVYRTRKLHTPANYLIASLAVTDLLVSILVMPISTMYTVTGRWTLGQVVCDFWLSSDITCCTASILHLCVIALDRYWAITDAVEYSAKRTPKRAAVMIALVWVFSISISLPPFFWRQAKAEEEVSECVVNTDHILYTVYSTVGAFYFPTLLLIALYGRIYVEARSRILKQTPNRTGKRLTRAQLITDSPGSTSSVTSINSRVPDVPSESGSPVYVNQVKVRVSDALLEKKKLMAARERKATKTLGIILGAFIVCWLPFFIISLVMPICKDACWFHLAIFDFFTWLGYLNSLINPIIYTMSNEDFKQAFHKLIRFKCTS
Protocol: The cell line for the 5HT1Dα receptor, designated as Ltk-8-30-84, was deposited on Apr. […] The cell for the 5HT1Dβ receptor, designated as Ltk-11, was deposited on Apr. […] Membrane preparations comprising these receptors were prepared as described below, and suspended in 50 mM Tris-HCl buffer (pH 7.4 at 37° C.) containing 10 mM MgCl2, 0.2 mM EDTA, 10 μM pargyline, and 0.1% ascorbate. The binding of compounds was determined in competition binding assays by incubation for 30 minutes at 37° C. in the presence of 5 nM [^3H]serotonin. Nonspecific binding was determined in the presence of 10 μM serotonin.

T1 sequence (P35462 whole entry): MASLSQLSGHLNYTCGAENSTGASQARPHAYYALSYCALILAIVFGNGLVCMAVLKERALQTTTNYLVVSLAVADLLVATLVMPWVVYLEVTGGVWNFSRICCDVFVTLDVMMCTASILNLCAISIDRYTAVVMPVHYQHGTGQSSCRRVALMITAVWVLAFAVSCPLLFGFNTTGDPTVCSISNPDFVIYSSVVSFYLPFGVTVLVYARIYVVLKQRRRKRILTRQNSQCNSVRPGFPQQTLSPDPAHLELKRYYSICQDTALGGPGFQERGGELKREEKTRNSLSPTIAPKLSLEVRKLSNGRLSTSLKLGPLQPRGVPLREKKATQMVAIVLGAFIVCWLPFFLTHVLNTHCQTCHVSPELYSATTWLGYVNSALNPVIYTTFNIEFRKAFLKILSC

SMILES	pKi D3 [1]	pKi α1a [2]	pKi 5HT7 [3]	Two-hour food intake of food-deprived rats, percentage of intake compared to control rats, Mean [4] [%]	Ki [5] [µM]	pKi α1b [6]	pKi α2b [7]	pKi 5HT1a [8]	pKi α2c [9]	pKi 5HT1Dβ [10]
Cl.O=S(=O)(NC[C@H]1CC[C@H](CNCC2CCc3ccccc3C2)CC1)c1cccc2ccccc12 (mixture of isomers) [Compound 19]	6.69	7.47	6.42	36	0.955	7.35	6.58	5.54		
Cl.O=[N+]([O-])c1ccccc1S(=O)(=O)NC[C@H]1CC[C@H](CNCC2CCc3ccccc3C2)CC1 (mixture of isomers) [Compound 20]	6.35	7.72	6.37	35	7.76	7.22	6.96		7.39	5.37
Cl.Cl.Nc1ccccc1S(=O)(=O)NC[C@H]1CC[C@H](CNCC2CCc3ccccc3C2)CC1 (mixture of isomers) [Compound 22]		7.34	6.39	55	7.57	6.98	6.43	6.56	7.15	5.41
